# Laboratory results from ChEMBL document CHEMBL1221402, “Bioactivity-guided isolation of 1,2,3,4,6-Penta-O-galloyl-D-glucopyranose from Paeonia lactiflora roots as a PTP1B inhibitor” (J Nat Prod, 2010).
# The source made the active and inactive calls. The calls are words filed in the database; no cut-off is given here.
# Tests used:
# [1] = biological target: T1, Tyrosine-protein phosphatase non-receptor type 2 (Homo sapiens, UniProt P17706); assay: Inhibition of TCPTP
# T1 sequence (P17706 whole entry): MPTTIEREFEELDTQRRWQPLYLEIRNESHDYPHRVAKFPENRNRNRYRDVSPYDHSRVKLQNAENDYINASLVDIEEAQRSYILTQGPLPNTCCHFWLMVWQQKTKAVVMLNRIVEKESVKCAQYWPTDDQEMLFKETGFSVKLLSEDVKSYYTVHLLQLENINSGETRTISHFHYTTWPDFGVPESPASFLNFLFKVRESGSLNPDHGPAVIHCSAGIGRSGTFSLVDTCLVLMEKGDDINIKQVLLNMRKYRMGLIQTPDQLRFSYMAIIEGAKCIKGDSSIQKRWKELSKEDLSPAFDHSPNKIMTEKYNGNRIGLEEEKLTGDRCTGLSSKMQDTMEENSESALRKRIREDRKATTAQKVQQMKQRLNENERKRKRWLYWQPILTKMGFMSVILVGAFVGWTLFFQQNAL
# [2] = biological target: T2, Tyrosine-protein phosphatase non-receptor type 11 (Homo sapiens) (UniProt Q06124); assay: Inhibition of SHP-2 at <50 uM
# T2 sequence (whole entry): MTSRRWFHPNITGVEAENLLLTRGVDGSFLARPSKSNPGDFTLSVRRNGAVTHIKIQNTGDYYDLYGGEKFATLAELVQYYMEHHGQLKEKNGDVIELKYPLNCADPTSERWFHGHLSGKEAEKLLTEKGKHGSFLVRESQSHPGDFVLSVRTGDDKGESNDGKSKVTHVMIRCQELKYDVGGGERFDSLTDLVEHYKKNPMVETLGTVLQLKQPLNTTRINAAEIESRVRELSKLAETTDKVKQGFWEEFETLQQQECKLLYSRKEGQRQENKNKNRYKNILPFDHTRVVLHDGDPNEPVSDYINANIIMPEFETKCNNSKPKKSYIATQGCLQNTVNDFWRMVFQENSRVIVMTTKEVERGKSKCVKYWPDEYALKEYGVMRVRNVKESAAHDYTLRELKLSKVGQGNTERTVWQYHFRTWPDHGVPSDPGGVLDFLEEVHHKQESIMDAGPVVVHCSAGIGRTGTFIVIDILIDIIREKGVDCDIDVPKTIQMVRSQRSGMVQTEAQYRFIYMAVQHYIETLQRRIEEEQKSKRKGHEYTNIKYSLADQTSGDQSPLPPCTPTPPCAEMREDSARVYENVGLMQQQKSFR
# [3] = biological target: Receptor-type tyrosine-protein phosphatase F (Homo sapiens) (UniProt P10586); assay: Inhibition of LAR at <50 uM
# Receptor-type tyrosine-protein phosphatase F (Homo sapiens), sequence (P10586 whole entry): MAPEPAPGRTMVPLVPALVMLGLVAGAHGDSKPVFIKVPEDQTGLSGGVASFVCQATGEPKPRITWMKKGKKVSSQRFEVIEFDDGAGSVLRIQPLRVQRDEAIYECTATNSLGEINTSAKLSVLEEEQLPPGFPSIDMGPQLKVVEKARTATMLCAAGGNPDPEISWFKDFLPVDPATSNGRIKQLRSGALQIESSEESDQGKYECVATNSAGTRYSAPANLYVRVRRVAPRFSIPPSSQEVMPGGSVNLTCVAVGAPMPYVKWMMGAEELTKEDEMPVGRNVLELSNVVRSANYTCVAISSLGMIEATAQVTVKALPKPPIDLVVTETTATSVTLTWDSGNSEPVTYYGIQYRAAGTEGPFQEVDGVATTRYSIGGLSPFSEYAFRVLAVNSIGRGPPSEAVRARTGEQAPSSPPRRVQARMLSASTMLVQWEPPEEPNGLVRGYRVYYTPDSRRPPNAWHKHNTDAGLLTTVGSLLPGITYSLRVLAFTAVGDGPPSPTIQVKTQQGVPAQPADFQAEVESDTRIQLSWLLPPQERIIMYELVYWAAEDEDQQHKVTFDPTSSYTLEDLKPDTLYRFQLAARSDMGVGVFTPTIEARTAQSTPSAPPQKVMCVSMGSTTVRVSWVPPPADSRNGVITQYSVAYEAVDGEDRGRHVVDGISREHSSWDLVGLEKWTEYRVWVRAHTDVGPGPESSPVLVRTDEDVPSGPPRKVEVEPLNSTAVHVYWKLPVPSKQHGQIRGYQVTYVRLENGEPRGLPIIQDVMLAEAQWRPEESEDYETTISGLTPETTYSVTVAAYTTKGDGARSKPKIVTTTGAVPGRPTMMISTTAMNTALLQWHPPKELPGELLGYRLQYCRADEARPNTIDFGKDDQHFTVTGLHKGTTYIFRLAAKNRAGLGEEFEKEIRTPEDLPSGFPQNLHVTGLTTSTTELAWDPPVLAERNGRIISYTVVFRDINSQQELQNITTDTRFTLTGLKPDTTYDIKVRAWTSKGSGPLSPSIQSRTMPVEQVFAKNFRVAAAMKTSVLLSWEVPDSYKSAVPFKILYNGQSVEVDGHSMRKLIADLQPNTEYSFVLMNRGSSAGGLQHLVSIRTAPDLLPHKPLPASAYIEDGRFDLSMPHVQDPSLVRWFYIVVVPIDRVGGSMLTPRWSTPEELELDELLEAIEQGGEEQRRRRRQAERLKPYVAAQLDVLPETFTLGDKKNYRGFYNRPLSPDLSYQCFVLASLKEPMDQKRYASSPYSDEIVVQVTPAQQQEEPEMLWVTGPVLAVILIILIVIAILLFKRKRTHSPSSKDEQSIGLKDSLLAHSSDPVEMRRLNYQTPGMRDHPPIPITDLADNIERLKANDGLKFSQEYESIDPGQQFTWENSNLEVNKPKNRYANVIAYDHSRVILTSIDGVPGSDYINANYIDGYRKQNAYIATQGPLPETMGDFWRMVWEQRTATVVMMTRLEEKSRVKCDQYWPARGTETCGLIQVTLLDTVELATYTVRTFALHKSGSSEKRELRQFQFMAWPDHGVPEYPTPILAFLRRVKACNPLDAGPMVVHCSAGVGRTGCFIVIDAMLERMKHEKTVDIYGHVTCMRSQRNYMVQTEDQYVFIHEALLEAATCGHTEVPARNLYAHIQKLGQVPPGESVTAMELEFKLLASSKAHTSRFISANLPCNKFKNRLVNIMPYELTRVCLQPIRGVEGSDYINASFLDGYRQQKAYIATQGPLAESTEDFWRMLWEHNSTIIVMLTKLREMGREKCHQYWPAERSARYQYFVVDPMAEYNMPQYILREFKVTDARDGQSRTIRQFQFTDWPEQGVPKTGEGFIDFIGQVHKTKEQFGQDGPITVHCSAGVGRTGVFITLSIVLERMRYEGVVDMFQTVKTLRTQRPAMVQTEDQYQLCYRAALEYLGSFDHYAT
# [4] = biological target: T3, Tyrosine-protein phosphatase non-receptor type 1 (Homo sapiens, UniProt P18031); assay: Inhibition of human recombinant PTP1B
# T3 sequence (P18031 whole entry): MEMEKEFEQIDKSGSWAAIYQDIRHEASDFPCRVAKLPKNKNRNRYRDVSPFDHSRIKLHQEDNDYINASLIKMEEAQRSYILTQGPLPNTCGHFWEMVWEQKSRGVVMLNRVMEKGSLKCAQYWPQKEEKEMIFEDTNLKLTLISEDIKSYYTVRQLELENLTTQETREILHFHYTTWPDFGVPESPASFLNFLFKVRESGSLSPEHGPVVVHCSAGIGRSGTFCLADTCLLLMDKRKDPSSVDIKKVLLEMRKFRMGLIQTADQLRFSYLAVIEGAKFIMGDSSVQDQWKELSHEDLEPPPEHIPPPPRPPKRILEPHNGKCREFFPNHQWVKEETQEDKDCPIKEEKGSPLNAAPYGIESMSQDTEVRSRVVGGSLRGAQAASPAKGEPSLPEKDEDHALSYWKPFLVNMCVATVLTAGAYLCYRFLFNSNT
# [5] = biological target: Insulin receptor (Homo sapiens) (UniProt P06213); assay: Induction of IR phosphorylation in insulin-stimulated starved human HCC-1.2 cells at 10 uM pretreated 2 hrs before insulin challenge by Western blot analysis
# Insulin receptor (Homo sapiens), sequence (P06213 28-758 limits assumed): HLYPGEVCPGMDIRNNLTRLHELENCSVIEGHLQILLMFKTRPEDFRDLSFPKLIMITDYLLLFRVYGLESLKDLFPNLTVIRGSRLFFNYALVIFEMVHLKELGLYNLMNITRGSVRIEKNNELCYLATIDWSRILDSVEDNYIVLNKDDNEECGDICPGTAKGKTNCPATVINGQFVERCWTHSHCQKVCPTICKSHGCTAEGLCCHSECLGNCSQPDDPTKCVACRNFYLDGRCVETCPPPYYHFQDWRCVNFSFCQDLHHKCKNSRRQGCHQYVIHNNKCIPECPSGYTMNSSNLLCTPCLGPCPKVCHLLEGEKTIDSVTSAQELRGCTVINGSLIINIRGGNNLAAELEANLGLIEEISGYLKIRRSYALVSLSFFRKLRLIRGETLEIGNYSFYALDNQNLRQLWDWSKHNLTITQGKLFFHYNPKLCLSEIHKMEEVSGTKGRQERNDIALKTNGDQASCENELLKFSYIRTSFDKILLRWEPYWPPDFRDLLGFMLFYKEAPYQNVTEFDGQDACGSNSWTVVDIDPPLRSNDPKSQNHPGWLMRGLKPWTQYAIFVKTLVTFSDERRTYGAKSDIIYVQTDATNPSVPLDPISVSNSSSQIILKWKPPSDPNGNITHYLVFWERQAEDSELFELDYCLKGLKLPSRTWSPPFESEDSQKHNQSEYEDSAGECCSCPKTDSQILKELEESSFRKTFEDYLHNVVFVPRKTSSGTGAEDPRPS
# Insulin receptor (Homo sapiens), sequence (P06213 763-1382 limits assumed): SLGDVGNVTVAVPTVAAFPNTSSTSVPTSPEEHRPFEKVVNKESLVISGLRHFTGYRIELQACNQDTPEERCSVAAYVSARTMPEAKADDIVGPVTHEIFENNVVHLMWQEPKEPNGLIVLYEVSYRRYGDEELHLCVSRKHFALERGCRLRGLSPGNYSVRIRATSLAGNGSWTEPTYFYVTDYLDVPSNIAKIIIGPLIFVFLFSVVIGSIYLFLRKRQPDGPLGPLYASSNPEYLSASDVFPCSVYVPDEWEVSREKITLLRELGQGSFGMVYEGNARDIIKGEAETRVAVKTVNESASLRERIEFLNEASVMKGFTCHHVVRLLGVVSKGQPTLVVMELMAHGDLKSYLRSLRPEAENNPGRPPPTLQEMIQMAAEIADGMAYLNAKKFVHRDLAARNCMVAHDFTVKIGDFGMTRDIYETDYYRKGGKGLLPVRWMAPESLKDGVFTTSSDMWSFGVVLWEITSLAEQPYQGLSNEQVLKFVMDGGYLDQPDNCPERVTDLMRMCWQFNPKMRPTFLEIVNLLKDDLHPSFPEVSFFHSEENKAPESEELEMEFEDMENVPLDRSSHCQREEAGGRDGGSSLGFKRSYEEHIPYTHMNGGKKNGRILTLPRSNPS
compound,measurement,setting,value
O=C(OC[C@H]1O[C@H](OC(=O)c2cc(O)c(O)c(O)c2)[C@H](OC(=O)c2cc(O)c(O)c(O)c2)[C@@H](OC(=O)c2cc(O)c(O)c(O)c2)[C@@H]1OC(=O)c1cc(O)c(O)c(O)c1)c1cc(O)c(O)c(O)c1,IC50,[1],70 nM
same,inhibition,[2],inactive
same,inhibition,[3],inactive
same,IC50,[4],4800 nM
same,Activity,[5],Active
